Earlier results as cited in patent publication US20220079896A1, “DELAYED RELEASE COMPOSITIONS” (AMNEAL COMPLEX PRODUCTS RESEARCH LLC, priority 2020, published 2022).

Compound	mean single-dose terminal elimination half-life
NC(=O)C[S@@+]([O-])C(c1ccccc1)c1ccccc1 [Armodafinil, (−)-2-[(R)-(diphenylmethyl)sulfinyl] acetamide]	approximately 13 hours
NC(=O)C[S+]([O-])C(c1ccccc1)c1ccccc1 (centres unmarked) [modafinil]	approximately 13 hours
